{"source": "patent US9290544B2", "about": "“Methods for making and using molecular switches involving circular permutation” (priority 2004, dated 2016)", "key": {"[1]": {"experiment": "Affinity of switches for maltose (method not given)", "assay_type": "binding", "from_the_text": "Exemplary switches were created by the method having different affinities for maltose."}, "[2]": {"experiment": "Hydrolysis of carbenicillin by RG-200-13 with and without 5 mM maltose", "assay_type": "biochemical", "settings": "substrate carbenicillin 1 mM; pH 7.0, 22° C.", "procedure": "(§1) A 6×His tag was added to the C-terminus of RG-200-13 (also termed “RG13” in Examples below) and the fusion was purified as previously described (Guntas and Ostermeier 2004). The protein was purified to approximately 60% purity. The kinetic constants and binding constants were determined from Eadie-Hofstee plots and Eadie plot equivalents, respectively, using a spectrophotometric assay for nitrocefin hydrolysis. Initial rates for nitrocefin hydrolysis were determined from absorbance at 486 nm monitored as a function of time. The enzyme was incubated at the assay temperature in the absence or presence of saccharide for four minutes prior to performing the assay. All assays contained 100 mM sodium phosphate buffer, pH 7.0. The dissociation constant for maltose was determined using change in velocity of nitrocefin hydrolysis as a signal.\n(§2) Maltose binding had the largest effect on cephalothin (of the substrates tested), with the velocity of cephalothin hydrolysis being 32-fold higher in the presence of maltose than in its absence."}, "[3]": {"experiment": "96-well colorimetric nitrocefin hydrolysis screen of lysates with or without 5 mM maltose", "assay_type": "biochemical", "settings": "50 μM nitrocefin", "procedure": "The naïve library was plated on LB agar plates supplemented with 200 μg/ml ampicillin and 50 mM maltose and incubated at 37° C. overnight. From these plates, 1056 colonies were picked to inoculate 1 ml LB media (supplemented with 50 μg/ml chloramphenicol and 1 mM IPTG) in 96-well format. After incubation overnight at 37′C, each culture was lysed using 0.1 ml Popculture reagent, 40 units of rLysozyme, and 2.5 units of benzonase nuclease. Lysates were centrifuged to pellet the insoluble material and the soluble fractions were assayed in 96-well format for nitrocefin hydrolysis in the presence or absence of 5 mM maltose using a colorimetric assay for nitrocefin hydrolysis (Posey et al. 2002). The assays were carried out at room temperature using the Spectramax-384 Plus microplate reader (Molecular Devices) in the presence of 100 mM sodium phosphate buffer and 50 μM nitrocefin in a 200 μl reaction volume."}, "[4]": {"experiment": "Ampicillin hydrolysis by purified RG13, 25° C.", "assay_type": "biochemical", "settings": "50 μM ampicillin", "procedure": "All kinetic assays were performed at 25° C. in the presence of 100 mM sodium phosphate buffer, pH 7.0. Ten μl of enzyme stock was added to 1.59 ml buffer (containing the saccharide, if desired). After incubation for 30 seconds, 0.4 ml of 5× substrate was added and the absorbance at the appropriate wavelength was recorded using the Cary50 UV-VIS spectrophotometer. The wavelength monitored was 486 nm, 240 nm, and 232 nm for nitrocefin, carbenicillin, and ampicillin respectively. From the initial rate of reaction the kinetic constants were determined using Eadie-Hofstee plots. […] The rate data was consistent with a small hysteretic effect (Brennan et al. 1994) and not substrate inhibition as preincubation of the enzyme with the substrate for one minute prevented the lag from occurring upon addition of more substrate. Therefore, the steady state parameters for nitrocefin hydrolysis in the absence of maltose were determined by measuring the rate at 1-2 minutes (well after the lag) and correcting the substrate concentration by subtracting the amount of substrate hydrolyzed. In all cases the extent of reaction at the point the rate was measured was less than 25%. In the presence of maltose, no lag was observed."}, "E. coli cells": {"test_system": "E. coli cells", "experiment": "MIC of ampicillin for E. coli cells expressing RG13 from pDIMC8 (Table 11)", "assay_type": "cell-based", "from_the_text": "The signal recognition domain can be altered by rational design or directed evolution to bind to new effectors. With respect to testing mutations predicted by rational design or screening or selecting libraries created for a directed evolution approach, existing switches are used to efficiently test or select for binding to new ligands in vivo. For example, E. coli cells expressing the MBP-BLA switch RG13 from the lac promoter on pDIMC8 have a higher MIC for ampicillin (Amp) in the presence of maltose than in their absence (Table 11) because the BLA enzymatic activity of RG13 (hydrolysis of ampicillin) is higher in the presence of maltose. Thus, for example, mutations created in RG13 (either by rational design or by a stochastic or semi-stochastic method) such that mutant forms of RG13 bind another ligand X (and behave as a switch) can be screened or selected for in vivo. E. coli producing such a new switch will grow at 200 μg/ml Amp in the presence of X but not in the absence of X."}, "[5]": {"experiment": "Dissociation constant for maltose from initial rate of carbenicillin hydrolysis", "assay_type": "binding", "settings": "1.5 mM carbenicillin, 25° C., read-out: Kd maltose, Saturating Carbenicillin, Enzymatic assay"}, "[6]": {"experiment": "Hydrolysis of cephalothin by RG-200-13 with and without 5 mM maltose", "assay_type": "biochemical", "settings": "substrate cephalothin 250 μM; pH 7.0, 22° C.", "procedure": "as §1, §2"}, "[7]": {"experiment": "Nitrocefin hydrolysis in soluble fraction of cell lysates with and without 5 mM maltose (screen and confirmation of positives)", "assay_type": "biochemical", "settings": "50 μM nitrocefin", "procedure": "Next, 50 μl of PopCulture (Novagen) and 2.5 unit of benzonase nuclease was added to each well and incubated for 15 minutes at room temperature to lyse the cells. The cells debris and any unlysed cells were pelleted by centrifugation and supernatant was recovered. In 96-well format, 60 μl of lysate was assayed for hydrolysis of nitrocefin (50 μM) by monitoring the increase in absorbance at 490 nm in 100 mM sodium phosphate buffer, pH 7.0, both with and without 5 mM maltose. Any lysate in which there was a difference in rate of more than 2-fold (between with and without maltose) was selected for retesting and further investigation.\nLibrary members identified as having more than 200% switching activity in the 96-well plate screen were grown 24-48 hours in 100 ml LB media in 500 ml shaker flasks at 22° C. without IPTG. The cells were pelleted and resuspended in 8 ml assay buffer (100 mM sodium phosphate buffer, pH 7.0) and lysed by French press. The soluble fraction of this lysate was assayed for hydrolysis of nitrocefin (50 μM) at 22° C. as previously described (Guntas and Ostermeier 2004) both with and without 5 mM maltose. Initial rates were determined from absorbance at 486 nm monitored as a function of time. The enzyme was incubated at the assay temperature in the absence or presence of 5 mM maltose for four minutes prior to performing the assay. All assays contained 100 mM sodium phosphate buffer, pH 7.0. Library members for which there was a difference in the initial rate of more than about 2-fold were sequenced (Table 4). Switches RG-5-169 and RG-200-13 were also assayed in the presence of 5 mM sucrose or 5 mM glucose."}}, "data": [{"substance": "RG13: MBP-BLA fusion switch MBP[1-316]-BLA[227-286]-GSGGG-BLA[24-226]-S-MBP[319-370]; SEQ ID NO: 61", "values": [{"measurement": "Kd", "setting": "[1]", "result": "1000 to 5000", "unit": "nM"}, {"measurement": "Approximate fold increase in velocity of carbenicillin hydrolysis in the presence of 5 mM maltose", "setting": "[2]", "result": "~4", "unit": "fold"}, {"measurement": "Increase of initial velocity of nitrocefin hydrolysis in the presence of maltose", "setting": "[3]", "result": 17, "unit": "fold"}, {"measurement": "Rate increase with maltose", "setting": "[4]", "result": 16, "unit": "fold"}, {"measurement": "MIC ampicillin", "setting": "E. coli cells; supplement to plate: 50 μM maltose", "result": 400, "unit": "µg/mL"}, {"measurement": "MIC ampicillin", "setting": "E. coli cells; supplement to plate: 5 mM maltose", "result": 400, "unit": "µg/mL"}, {"measurement": "MIC ampicillin", "setting": "E. coli cells; supplement to plate: none, LB plates, 37° C.", "result": 100, "unit": "µg/mL"}, {"measurement": "Kd", "setting": "[5]", "result": "900 ± 100", "unit": "nM"}, {"measurement": "Fold increase in velocity of cephalothin hydrolysis with 5 mM maltose", "setting": "[6]", "result": 32, "unit": "fold"}, {"measurement": "Effect of 5 mM sucrose or 5 mM glucose on velocity of nitrocefin hydrolysis", "setting": "[7]; 22° C., lysate soluble fraction", "result": "Neither sugar affected the velocity of nitrocefin hydrolysis"}, {"measurement": "Switching effect: percent change in velocity of nitrocefin hydrolysis in the presence of 5 mM maltose", "setting": "[7]; 5 mM maltose, 100 mM sodium phosphate buffer, pH 7.0", "result": "+1650%"}]}]}
